Our source for the IC50 values is BindingDB's records for doi:10.1021/acs.jmedchem.6b00703 (Novartis Institutes of Biomedical Research (Nibr), 2016).

What is called IC50 is the midpoint of a concentration-inhibition curve.

The nature of the assay: Inhibition of PDGFR-beta driven proliferation of rat A10 cells after 68 hrs in presence of rat recombinant PDGF-BB by cell titer-glo luminescence assay.

`Cc1ccc(NC(=O)c2ccc(CN3CCN(C)CC3)cc2)cc1Nc1nccc(-c2cccnc2)n1`: the IC50 came to 162 nM.

As to `Cc1ccc(C(=O)NCc2ccccc2)cc1NC(=O)c1cnn2ccccc12`, the IC50 stood at 12 nM.

`CCN(CCNC(=O)c1ccc(F)c(NC(=O)c2cnc3cc(-c4ccnn4C)ccn23)c1)C(C)(C)C`: the IC50 came out at 22 nM.

Take `Cn1nccc1-c1ccn2c(C(=O)Nc3cc(C(=O)NCc4ccc(F)c(F)c4)ccc3F)cnc2c1`: the half-inhibitory concentration (IC50) stood at 3 nM.

On to `Cc1ncc(C(=O)NCc2ccccc2N2CCN(C)CC2)cc1NC(=O)c1cnn2cc(-c3ccnn3C)ccc12`, for which the IC50 was determined as 35 nM.

Regarding `CN(CCNC(=O)c1ccc(F)c(NC(=O)c2cnc3cc(-c4ccnn4C)ccn23)c1)C(C)(C)C`, the IC50 is 23 nM.

As for `Cc1ncc(C(=O)NCCN2CCCC2(C)C)cc1NC(=O)c1cnn2cc(-c3cnn(C)c3)ccc12`, the half-inhibitory concentration (IC50) turned out to be 13 nM.

Take `CN1CCN(c2ccccc2CNC(=O)c2ccc(F)c(NC(=O)c3cnc4ccccn34)c2)CC1`: the IC50 was determined as 36 nM.

On to `Cn1nccc1-c1ccn2c(C(=O)Nc3cc(C(=O)NCC4CCC(C)(C)O4)ccc3F)cnc2c1` (configuration not stated), for which the IC50 worked out at 2.7 nM.

Regarding `CN1CCN(c2ccccc2CNC(=O)c2ccc(F)c(NC(=O)c3cnc4cc(-c5cccnc5)ccn34)c2)CC1`, the 50% inhibitory concentration (IC50) came out at 7.9 nM.

Take `C[C@@H]1CCC[C@H](C)N1CCNC(=O)c1ccc(F)c(NC(=O)c2cnc3cc(-c4ccnn4C)ccn23)c1`: the IC50 was 8.7 nM.

As to `CN1CCN(c2ccccc2CNC(=O)c2ccc(F)c(NC(=O)c3cnc4cc(-c5cnn(C)c5)ccn34)c2)CC1`, the IC50 is 3.6 nM.

`Cn1nccc1-c1ccn2c(C(=O)Nc3cc(C(=O)NCCN4CCCC4(C)C)ccc3F)cnc2c1`: the IC50 was determined as 9.5 nM.

Consider `CN1CCN(c2ccccc2CNC(=O)c2ccc(F)c(NC(=O)c3cnc4cc(-c5ccnn5C)ccn34)c2)CC1`, for which the half-inhibitory concentration (IC50) came out at 9.2 nM.

As for `Cn1cc(-c2ccn3c(C(=O)Nc4cc(C(=O)NCCN5CCCC5(C)C)ccc4F)cnc3c2)cn1`, the IC50 was 1.7 nM.

For the compound `CN1CCN(c2ccccc2CNC(=O)c2ccc(F)c(NC(=O)c3cnn4cc(-c5ccnn5C)ccc34)c2)CC1`, the IC50 was determined as 10 nM.

`CN1CCN(c2ccccc2CNC(=O)c2ccc(F)c(NC(=O)c3cnc4cc(-c5cc[nH]n5)ccn34)c2)CC1`: the IC50 is 19 nM.
